Experimental data from US8623857B2, “N-phenyl imidazole carboxamide inhibitors of 3-phosphoinositide-dependent protein kinase-1” (Merck Sharp & Dohme Corp., priority 2010, dated 2014).

How the values were obtained:
recombinant human PDK1 = biological target: T1, recombinant human PDK1 (Homo sapiens, UniProt O15530); test: PDK1 IMAP fluorescence polarization assay (inhibition of peptide substrate phosphorylation); assay type: biochemical; details: Table 10; compounds 97-132
T1 construct: containing amino acids 51-556 of the human PDK1 enzyme; made in house; host or cells: Sf9 insect cells
T1 sequence (O15530 51-556): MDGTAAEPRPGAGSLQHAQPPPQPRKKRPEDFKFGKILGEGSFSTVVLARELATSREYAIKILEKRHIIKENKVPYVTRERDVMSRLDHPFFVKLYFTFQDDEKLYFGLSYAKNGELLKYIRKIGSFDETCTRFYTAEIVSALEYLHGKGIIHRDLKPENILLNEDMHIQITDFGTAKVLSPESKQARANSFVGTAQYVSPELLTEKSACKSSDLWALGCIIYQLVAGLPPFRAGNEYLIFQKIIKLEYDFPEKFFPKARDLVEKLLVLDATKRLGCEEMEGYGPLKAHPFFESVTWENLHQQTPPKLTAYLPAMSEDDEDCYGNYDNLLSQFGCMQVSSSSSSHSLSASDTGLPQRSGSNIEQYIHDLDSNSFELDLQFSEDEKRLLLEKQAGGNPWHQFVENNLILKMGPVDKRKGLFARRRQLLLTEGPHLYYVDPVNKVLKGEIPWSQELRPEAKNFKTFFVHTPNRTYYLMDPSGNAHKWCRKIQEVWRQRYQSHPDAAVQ

PDK-1 = biological target: T2, PDK-1 (Homo sapiens, UniProt O15530); details: in vitro; cited from earlier work
T2 sequence (O15530 1-556): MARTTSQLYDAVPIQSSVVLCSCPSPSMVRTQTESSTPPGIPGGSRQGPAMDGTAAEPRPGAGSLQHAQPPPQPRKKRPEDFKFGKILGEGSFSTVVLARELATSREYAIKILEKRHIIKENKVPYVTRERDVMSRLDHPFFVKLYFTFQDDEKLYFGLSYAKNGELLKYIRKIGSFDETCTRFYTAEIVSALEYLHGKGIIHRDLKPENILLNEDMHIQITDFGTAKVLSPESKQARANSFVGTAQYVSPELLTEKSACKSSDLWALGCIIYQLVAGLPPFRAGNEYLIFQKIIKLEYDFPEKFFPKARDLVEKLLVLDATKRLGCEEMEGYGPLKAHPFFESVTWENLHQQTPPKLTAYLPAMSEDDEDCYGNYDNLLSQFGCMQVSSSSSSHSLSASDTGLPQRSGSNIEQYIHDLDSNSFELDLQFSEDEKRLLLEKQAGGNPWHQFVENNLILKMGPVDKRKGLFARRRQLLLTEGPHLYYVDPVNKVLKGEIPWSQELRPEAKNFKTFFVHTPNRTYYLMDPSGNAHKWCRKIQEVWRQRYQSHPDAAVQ

Molecule | IC50 (recombinant human PDK1) [nM] | enhance PDK-1 phosphorylation of substrates (PDK-1)
CNc1nc(-c2c[nH]c(C(=O)Nc3cccc(F)c3N3CCC(CN)CC3)n2)cc(N2CCC(NC)(C(N)=O)CC2)n1 [Compound 127, 1-(6-(2-(2-(4-(aminomethyl)piperidin-1-yl)-3-fluorophenylcarbamoyl)-1H-imidazol-4-yl)-2-(methylamino)pyrimidin-4-yl)-4-(methylamino)piperidine-4-carboxamide] | 1 to 50 | 
CNc1nc(-c2c[nH]c(C(=O)Nc3cccc(F)c3N3CCC(CN)CC3)n2)cc(N2CC[C@@](COC)(C(=O)NC3CCCCC3)C2)n1 [Compound 132, (R)—N-(2-(4-(aminomethyl)piperidin-1-yl)-3-fluorophenyl)-4-(6-(3-(cyclohexylcarbamoyl)-3-(methoxymethyl)pyrrolidin-1-yl)-2-(methylamino)pyrimidin-4-yl)-1H-imidazole-2-carboxamide] | 1 to 50 | 
PIFtide: "The peptide sequence of PIFtide is RREPRILSEEEQEMFRDFDYIADWC (SEQ ID NO:2)"; "interacts with PDK-1 and is derived from PRK2 kinase" (PIFtide) |  | approximately 4 fold

More lines, main results first:

IC50 (recombinant human PDK1) [nM] | Molecule | enhance PDK-1 phosphorylation of substrates (PDK-1)
1 to 50 | CNc1nc(-c2c[nH]c(C(=O)Nc3cccc(F)c3N3CCC(CN)CC3)n2)cc(N2CC[C@@](OC)(C(N)=O)C2)n1 [Compound 128, (S)—N-(2-(4-(aminomethyl)piperidin-1-yl)-3-fluorophenyl)-4-(6-(3-carbamoyl-3-methoxypyrrolidin-1-yl)-2-(methylamino)pyrimidin-4-yl)-1H-imidazole-2-carboxamide] | 
1 to 50 | CNc1nc(-c2c[nH]c(C(=O)Nc3cccc(F)c3N3CCC(CN)CC3)n2)cc(N2CC[C@@](OC)(C(=O)NC3CCCCC3)C2)n1 [Compound 129, (S)—N-(2-(4-(aminomethyl)piperidin-1-yl)-3-fluorophenyl)-4-(6-(3-(cyclohexylcarbamoyl)-3-methoxypyrrolidin-1-yl)-2-(methylamino)pyrimidin-4-yl)-1H-imidazole-2-carboxamide] | 
1 to 50 | CNc1nc(-c2c[nH]c(C(=O)Nc3cccc(F)c3N3CCC(CN)CC3)n2)cc(N2CC[C@@](COC)(C(=O)NCc3ccccc3)C2)n1 [Compound 130, (R)—N-(2-(4-(aminomethyl)piperidin-1-yl)-3-fluorophenyl)-4-(6-(3-(benzylcarbamoyl)-3-(methoxymethyl)pyrrolidin-1-yl)-2-(methylamino)pyrimidin-4-yl)-1H-imidazole-2-carboxamide] | 
1 to 50 | CNc1nc(-c2c[nH]c(C(=O)Nc3cccc(F)c3N3CCC(CN)CC3)n2)cc(N2CC[C@@](COC)(C(=O)NC3CC3)C2)n1 [Compound 131, (R)—N-(2-(4-(aminomethyl)piperidin-1-yl)-3-fluorophenyl)-4-(6-(3-(cyclopropylcarbamoyl)-3-(methoxymethyl)pyrrolidin-1-yl)-2-(methylamino)pyrimidin-4-yl)-1H-imidazole-2-carboxamide] | 
